Data from US20070244184A1, “GLYCOSIDASE INHIBITORS AND METHODS OF SYNTHESIZING SAME” (SIMON FRASER UNIVERSITY, priority 2006, published 2007).
Structures can show the parent of a compound that is named as a salt. Where two headings read alike, the source gives them in different places. One block for each molecule: values may come before it.

How the values were obtained:
[1] = biological target: T1, recombinant human maltase glucoamylase (MGA) (Homo sapiens, UniProt O43451); test: Recombinant MGA inhibition, maltose substrate, glucose oxidase assay (Ki); format: biochemical; conditions: for Ki: maltose substrate, read-out: Ki against recombinant human MGA
Method: (§1) Enzyme Activity Assays: Measurement of dGMII inhibition was carried out as outlined in the literature.^12 Analysis of recombinant MGA inhibition and determination of the kinetic constants for competitive inhibition have been described.^60 Briefly, analysis of MGA inhibition was performed using maltose as the substrate, and measuring the release of glucose. Reactions were carried out in 100 mM MES buffer pH 6.5 at 37° C. The reaction was stopped by boiling for 3 min. 20 μL aliquots were taken and added to 100 μL of glucose oxidase assay reagent (Sigma) in a 96-well plate. Reactions were developed for 1 hour and absorbance was measured at 450 nm to determine the amount of glucose produced by MGA activity in the reaction. All reactions were performed in triplicate and absorbance measurements were averaged to give a final result.
Enzyme Kinetics: Kinetic parameters of recombinant MGA were determined using the glucose oxidase assay to follow the production of glucose upon addition of enzyme (15 nM) at increasing maltose concentrations (from 2.5 mM to 30 mM) with a reaction time of 15 minutes. The Ki value was determined by measuring the rate of maltose hydrolysis by MGA at varying inhibitor concentrations. Data were plotted in Lineweaver-Burk plots (1/rate vs. 1/[substrate]) and the Ki value was determined by the equation Ki=Km[I]/(Vmax)s−Km, where “s” is the slope of the line. The Ki reported was an average of the Ki values obtained from each of the different inhibitor concentrations.
Enzyme Activity Assay. Analysis of MGA inhibition was performed using maltose as the substrate, and measuring the release of glucose. Reactions were carried out in 100 mM MES buffer pH 6.5 at 37° C. for 15 min. The reaction was stopped by boiling for 3 min. 20 μL aliquots were taken and added to 100 μL of glucose oxidase assay reagent (Sigma) in a 96-well plate. Reactions were allowed to proceed for 1 h and absorbance was measured at 450 nm to determine the amount of glucose produced by MGA activity in the reaction. One unit of activity is defined as the hydrolysis of one […] of maltose per minute. All reactions were performed in triplicate and absorbance measurements were averaged to give a final result.
Enzyme Kinetics. Kinetic parameters of recombinant MGA were determined using the glucose oxidase assay to follow the production of glucose upon addition of enzyme (15 nM) at increasing maltose concentrations (from 1 mM-3.5 mM) with a reaction time of 15 min. The program GraFit 4.0.14 was used to fit the data to the Michaelis-Menten equation and estimate the kinetic parameters, Km and Vmax, of the enzyme. Ki values for each inhibitor were determined by measuring the rate of maltose hydrolysis by MGA at varying inhibitor concentrations. Data were plotted in Lineweaver-Burk plots (1/rate vs. 1/[substrate]) and Ki values were determined by the equation Ki=Km[I]/(Vmax)m−Km, where “m” is the slope of the line. The Ki reported for each inhibitor was estimated by averaging the Ki values obtained from each of the different inhibitor concentrations.

[2] = biological target: T2, Drosophila melanogaster Golgi α-mannosidase II (dGMII) (Drosophila melanogaster, UniProt Q24451); test: dGMII inhibition; format: biochemical
T2 sequence (Q24451 1-1108): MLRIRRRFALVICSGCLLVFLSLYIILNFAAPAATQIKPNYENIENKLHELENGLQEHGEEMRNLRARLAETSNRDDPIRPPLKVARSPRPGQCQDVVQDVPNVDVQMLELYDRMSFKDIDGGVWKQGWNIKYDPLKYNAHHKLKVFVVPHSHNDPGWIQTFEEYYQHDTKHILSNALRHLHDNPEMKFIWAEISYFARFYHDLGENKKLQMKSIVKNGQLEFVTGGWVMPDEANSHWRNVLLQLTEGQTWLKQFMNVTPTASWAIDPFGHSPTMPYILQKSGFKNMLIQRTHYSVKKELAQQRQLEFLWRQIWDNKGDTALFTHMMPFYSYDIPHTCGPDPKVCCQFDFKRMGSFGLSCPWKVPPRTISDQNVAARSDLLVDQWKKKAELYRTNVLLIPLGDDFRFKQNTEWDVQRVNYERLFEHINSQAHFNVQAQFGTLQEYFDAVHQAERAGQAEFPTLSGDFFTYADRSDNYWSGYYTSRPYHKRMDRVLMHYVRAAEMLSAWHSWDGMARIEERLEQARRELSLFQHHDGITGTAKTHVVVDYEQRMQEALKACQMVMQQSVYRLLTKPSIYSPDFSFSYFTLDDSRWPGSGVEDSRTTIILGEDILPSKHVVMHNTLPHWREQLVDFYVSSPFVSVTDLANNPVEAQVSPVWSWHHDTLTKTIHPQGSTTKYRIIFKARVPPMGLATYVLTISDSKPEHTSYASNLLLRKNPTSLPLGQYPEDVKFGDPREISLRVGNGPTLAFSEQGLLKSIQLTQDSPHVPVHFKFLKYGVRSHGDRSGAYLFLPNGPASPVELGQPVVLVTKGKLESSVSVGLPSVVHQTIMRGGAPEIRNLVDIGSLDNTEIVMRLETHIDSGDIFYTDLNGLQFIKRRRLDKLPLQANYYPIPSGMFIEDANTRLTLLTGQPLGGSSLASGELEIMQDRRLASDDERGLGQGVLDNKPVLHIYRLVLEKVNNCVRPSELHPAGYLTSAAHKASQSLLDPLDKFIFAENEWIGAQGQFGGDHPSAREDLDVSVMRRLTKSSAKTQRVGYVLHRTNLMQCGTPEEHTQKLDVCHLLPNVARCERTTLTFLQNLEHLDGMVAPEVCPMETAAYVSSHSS
Method: as §1

[3] = biological target: T1, recombinant human maltase glucoamylase (MGA); test: MGA inhibition, p-nitrophenyl α-D-glucopyranoside substrate (IC50); format: biochemical; conditions: p-nitrophenyl α-D-glucopyranoside as substrate
Method: The assays were carried out in 96-well microtiter plates containing 100 mM MES buffer pH 6.5, inhibitor and pNP-glucose as substrate, with a final volume of 50 μL. Reactions were incubated at 37° C. for 35 min and terminated by addition of 50 μL of 0.5 M sodium carbonate. […] All reactions were performed in triplicate and absorbance measurements were averaged to give a final result.

[4] = biological target: T1, recombinant human maltase glucoamylase (MGA); conditions: cited from earlier work
[5] = biological target: T2, Drosophila melanogaster Golgi α-mannosidase II (dGMII); conditions: read-out: IC50 against dGMII, cited from earlier work

T1 sequence (O43451 87-954 limits assumed): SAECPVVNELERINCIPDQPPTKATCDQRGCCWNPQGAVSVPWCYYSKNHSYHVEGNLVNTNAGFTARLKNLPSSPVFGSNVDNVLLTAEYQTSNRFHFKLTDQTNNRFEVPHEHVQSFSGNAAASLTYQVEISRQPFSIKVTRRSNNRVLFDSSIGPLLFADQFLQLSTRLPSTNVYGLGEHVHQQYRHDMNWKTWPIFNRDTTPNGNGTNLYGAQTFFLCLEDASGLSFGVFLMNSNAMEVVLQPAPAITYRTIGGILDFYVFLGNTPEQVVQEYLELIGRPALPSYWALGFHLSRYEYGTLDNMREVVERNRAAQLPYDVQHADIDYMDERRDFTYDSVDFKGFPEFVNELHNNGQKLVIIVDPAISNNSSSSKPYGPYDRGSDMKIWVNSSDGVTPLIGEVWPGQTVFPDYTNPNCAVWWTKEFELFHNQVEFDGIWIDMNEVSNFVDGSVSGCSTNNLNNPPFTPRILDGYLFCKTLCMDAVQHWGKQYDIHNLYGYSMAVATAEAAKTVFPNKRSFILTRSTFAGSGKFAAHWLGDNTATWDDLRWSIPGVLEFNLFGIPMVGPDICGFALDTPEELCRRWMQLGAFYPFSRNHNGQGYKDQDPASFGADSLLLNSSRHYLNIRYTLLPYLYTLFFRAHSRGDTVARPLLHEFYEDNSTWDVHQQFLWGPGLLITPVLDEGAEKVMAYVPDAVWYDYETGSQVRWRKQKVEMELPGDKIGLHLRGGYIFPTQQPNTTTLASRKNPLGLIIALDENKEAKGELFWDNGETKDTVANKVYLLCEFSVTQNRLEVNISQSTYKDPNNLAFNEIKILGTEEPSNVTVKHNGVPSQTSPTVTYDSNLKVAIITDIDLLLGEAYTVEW

melting point: 86 to 88 °C
Compound: CCCCCCCCCCCCCC[S+]1CC(O)C(O)C1CO (as salt: chloride) [Compound 48, 1,4-Dideoxy-1,4-[(1-tetradecyl)-(R)-episulfoniumylidene]-D-arabinitol chloride]

melting point: 95 to 97 °C
Compound: CCCCCCCCCCCCCCCCCC[S+]1CC(O)C(O)C1CO (as salt: chloride) [Compound 49, 1,4-Dideoxy-1,4-[(1-octadecyl)-(R)-episulfoniumylidene]-D-arabiiiitol chloride]

melting point: 69 to 71 °C
Compound: CCCCCCCCCCCCCC[S+]1CC(O)C(O)C1CO (as salt: triflate) [Compound 44, 1,4-Dideoxy-1,4-[(1-tetradecyl)-(R)-episulfoniumylidene]-D-arabinitol triflate]

Compound: O=C([O-])[C@H](O)[C@H](O)[C@H](O)C[S@@+]1C[C@H](O)[C@@H](O)[C@@H]1CO [Compound 4, 1,4-Dideoxy-1,4-[[(2′S,3′S,4′R)-2′,3′,4′-trihydroxy-4′-carboxybutyl]-episulfoniumyl-idene]-L-arabinitol inner salt]
inhibitory activity against recombinant human MGA (in words) [1]: Only compound 5, with the D-arabinitol configuration in the heterocyclic ring displayed by salacinol 1, was found to be active

Ki [1]: 10 µM
Compound: O=C([O-])C(O)C(O)C(O)C[S+]1CC(O)C(O)C1CO [Compound 5, 1,4-Dideoxy-1,4-[[(2′S,3′S,4′R)-2′,3′,4′-trihydroxy-4′-carboxybutyl]-episulfoniumyl-idene]-D-arabinitol inner salt]

Compound: O=C(O)[C@@H](O)[C@@H](O)[C@H](O)[C@@H](O)CN1C[C@H](O)[C@@H](O)[C@@H]1CO [Compound 20, 6′-((1,4-Dideoxy-1,4-imino-L-arabinitol)-4-N-ammonium)-6′-deoxy-L-gulonate]
activity against dGMII (in words) [2]: not active on either enzyme
inhibitory activity against recombinant human MGA (in words) [1]: not active on either enzyme

Compound: O=C(O)[C@@H](O)[C@@H](O)[C@H](O)[C@@H](O)CN1C[C@@H](O)[C@H](O)[C@H]1CO [Compound 21, 6′-((1,4-Dideoxy-1,4-imino-D-arabinitol)-4-N-ammonium)-6′-deoxy-L-gulonic acid hydro-chloride]
improvement of dGMII inhibition over salacinol, kotalanol and other analogues ([2]; 0.3 mM vs approximately 7.5 mM): 25 fold
IC50 ([2]; read-out: IC50 against dGMII): 300 µM
Ki [1]: 21 µM

IC50 [3]: 25 µM
Compound: CCCCCCCCCCCCCC[S+]1CC(O)C(O)C1CO [Compound 44, 1,4-Dideoxy-1,4-[(1-tetradecyl)-(R)-episulfoniumylidene]-D-arabinitol triflate]

IC50 [3]: 50 µM
Compound: CCCCCC[S+]1CC(O)C(O)C1CO [Compound 46, 1,4-Dideoxy-1,4-[(1-hexyl)-(R)-episulfoniumylidene]-D-arabinitol chloride]

IC50 [3]: 30 µM
Compound: CCCCCCCCCCCCCC[S+]1CC(O)C(O)C1CO [Compound 48, 1,4-Dideoxy-1,4-[(1-tetradecyl)-(R)-episulfoniumylidene]-D-arabinitol chloride]

IC50 [3]: 15 µM
Compound: CCCCCCCCCCCCCCCCCC[S+]1CC(O)C(O)C1CO [Compound 49, 1,4-Dideoxy-1,4-[(1-octadecyl)-(R)-episulfoniumylidene]-D-arabiiiitol chloride]

IC50 [3]: 50 µM
Compound: CC(C)CC[S+]1CC(O)C(O)C1CO [Compound 50, 1,4-Dideoxy-1,4-[[1-(3-methyl)-butyl]-(R)-episulfoniumylidene]-D-arabinitol chloride]

Ki [1]: 20 ± 4 µM
Compound: O=S(=O)([O-])OC(CO)C(O)C(O)C[S+]1CC(O)C(O)C1CO (stereo not shown) [Compound 78]

Compound: O=S(=O)([O-])OC(CO)C(O)C(O)C[Se+]1CC(O)C(O)C1CO [Compound 79, 1,4-Dideoxy-1,4[[2S,3S,4S]-2,3,5-trihydroxy-4-(sulfooxy)-pentyl]-epi-selenoniumylidene]-D-arabinitol Inner salt]
Ki [1]: 53 ± 5 µM

inhibitory activity against recombinant human MGA (in words) [1]: not active
Compound: O=S(=O)([O-])O[C@H](CO)[C@H](O)[C@@H](O)C[S+]1C[C@@H](O)[C@H](O)[C@H]1CO (stereo partly drawn) [Compound 80, 1,4-Dideoxy-1,4[[2R,3R,4R]-2,3,5-trihydroxy-4-(sulfooxy)-pentyl]-epi-sulfoniumylidene]-D-arabinitol Inner salt]

Compound: O=S(=O)([O-])OC(CO)C(O)C(O)C[Se+]1CC(O)C(O)C1CO [Compound 81, 1,4-Dideoxy-1,4[[2R,3R,4R]-2,3,5-trihydroxy-4-(sulfooxy)-pentyl]-epi-selenoniumylidene]-D-arabinitol Inner salt]
inhibitory activity against recombinant human MGA (in words) [1]: not active

Compound: O=S(=O)([O-])O[C@@H]([C@H](O)C[S@+]1C[C@@H](O)[C@H](O)[C@H]1CO)[C@@H](O)CO [Compound 89]
inhibitory activity against MGA (in words) [4]: inactive

Compound: O=S(=O)([O-])OC(CO)C(O)C[Se+]1CC(O)C(O)C1CO (stereo not shown) [blintol]
IC50 [5]: ~7500 µM
Ki ([4]; read-out: Ki against MGA, reference compounds, unit inferred): 0.49 ± 0.05 µM

Compound: O=S(=O)([O-])OC(C(O)C[S+]1CC(O)C(O)C1CO)C(O)C(O)C(O)CO (stereo not shown) [kotalanol]
IC50 [5]: ~7500 µM

Compound: O=S(=O)([O-])OC(CO)C(O)C[S+]1CC(O)C(O)C1CO (stereo not shown) [salacinol]
IC50 [5]: ~7500 µM

Compound: O[C@H]1[C@H]2[C@H](O)CCCN2C[C@H]1O [swainsonine]
IC50 ([5]; swainsonine, literature value): 0.02 to 0.04 µM
